Reference: US9101616B2, “Aryl substituted carboxamide derivatives as calcium or sodium channel blockers” (RaQualia Pharma Inc., priority 2009, dated 2015)

target: T1, human T-type channel alpha-1H (CaV 3.2) (Homo sapiens, UniProt O95180); assay: Ca2+ Influx Assay (cell-based fluorescent, FDSS); details: HEK 293 cells expressing human CaV 3.2
T1 construct: expressed in transfected cells; host or cells: HEK 293
Method in brief: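 HEK293 cells stably expressing human CaV3.2, loaded with Fluo-4-AM 1 h at 37 °C. Compound added 4.5 min before potassium ionophore, then high-K+ depolarization with fluorescence monitored on FDSS. IC50 from 7-point dose-response, duplicate wells.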

T1 sequence (O95180 whole entry): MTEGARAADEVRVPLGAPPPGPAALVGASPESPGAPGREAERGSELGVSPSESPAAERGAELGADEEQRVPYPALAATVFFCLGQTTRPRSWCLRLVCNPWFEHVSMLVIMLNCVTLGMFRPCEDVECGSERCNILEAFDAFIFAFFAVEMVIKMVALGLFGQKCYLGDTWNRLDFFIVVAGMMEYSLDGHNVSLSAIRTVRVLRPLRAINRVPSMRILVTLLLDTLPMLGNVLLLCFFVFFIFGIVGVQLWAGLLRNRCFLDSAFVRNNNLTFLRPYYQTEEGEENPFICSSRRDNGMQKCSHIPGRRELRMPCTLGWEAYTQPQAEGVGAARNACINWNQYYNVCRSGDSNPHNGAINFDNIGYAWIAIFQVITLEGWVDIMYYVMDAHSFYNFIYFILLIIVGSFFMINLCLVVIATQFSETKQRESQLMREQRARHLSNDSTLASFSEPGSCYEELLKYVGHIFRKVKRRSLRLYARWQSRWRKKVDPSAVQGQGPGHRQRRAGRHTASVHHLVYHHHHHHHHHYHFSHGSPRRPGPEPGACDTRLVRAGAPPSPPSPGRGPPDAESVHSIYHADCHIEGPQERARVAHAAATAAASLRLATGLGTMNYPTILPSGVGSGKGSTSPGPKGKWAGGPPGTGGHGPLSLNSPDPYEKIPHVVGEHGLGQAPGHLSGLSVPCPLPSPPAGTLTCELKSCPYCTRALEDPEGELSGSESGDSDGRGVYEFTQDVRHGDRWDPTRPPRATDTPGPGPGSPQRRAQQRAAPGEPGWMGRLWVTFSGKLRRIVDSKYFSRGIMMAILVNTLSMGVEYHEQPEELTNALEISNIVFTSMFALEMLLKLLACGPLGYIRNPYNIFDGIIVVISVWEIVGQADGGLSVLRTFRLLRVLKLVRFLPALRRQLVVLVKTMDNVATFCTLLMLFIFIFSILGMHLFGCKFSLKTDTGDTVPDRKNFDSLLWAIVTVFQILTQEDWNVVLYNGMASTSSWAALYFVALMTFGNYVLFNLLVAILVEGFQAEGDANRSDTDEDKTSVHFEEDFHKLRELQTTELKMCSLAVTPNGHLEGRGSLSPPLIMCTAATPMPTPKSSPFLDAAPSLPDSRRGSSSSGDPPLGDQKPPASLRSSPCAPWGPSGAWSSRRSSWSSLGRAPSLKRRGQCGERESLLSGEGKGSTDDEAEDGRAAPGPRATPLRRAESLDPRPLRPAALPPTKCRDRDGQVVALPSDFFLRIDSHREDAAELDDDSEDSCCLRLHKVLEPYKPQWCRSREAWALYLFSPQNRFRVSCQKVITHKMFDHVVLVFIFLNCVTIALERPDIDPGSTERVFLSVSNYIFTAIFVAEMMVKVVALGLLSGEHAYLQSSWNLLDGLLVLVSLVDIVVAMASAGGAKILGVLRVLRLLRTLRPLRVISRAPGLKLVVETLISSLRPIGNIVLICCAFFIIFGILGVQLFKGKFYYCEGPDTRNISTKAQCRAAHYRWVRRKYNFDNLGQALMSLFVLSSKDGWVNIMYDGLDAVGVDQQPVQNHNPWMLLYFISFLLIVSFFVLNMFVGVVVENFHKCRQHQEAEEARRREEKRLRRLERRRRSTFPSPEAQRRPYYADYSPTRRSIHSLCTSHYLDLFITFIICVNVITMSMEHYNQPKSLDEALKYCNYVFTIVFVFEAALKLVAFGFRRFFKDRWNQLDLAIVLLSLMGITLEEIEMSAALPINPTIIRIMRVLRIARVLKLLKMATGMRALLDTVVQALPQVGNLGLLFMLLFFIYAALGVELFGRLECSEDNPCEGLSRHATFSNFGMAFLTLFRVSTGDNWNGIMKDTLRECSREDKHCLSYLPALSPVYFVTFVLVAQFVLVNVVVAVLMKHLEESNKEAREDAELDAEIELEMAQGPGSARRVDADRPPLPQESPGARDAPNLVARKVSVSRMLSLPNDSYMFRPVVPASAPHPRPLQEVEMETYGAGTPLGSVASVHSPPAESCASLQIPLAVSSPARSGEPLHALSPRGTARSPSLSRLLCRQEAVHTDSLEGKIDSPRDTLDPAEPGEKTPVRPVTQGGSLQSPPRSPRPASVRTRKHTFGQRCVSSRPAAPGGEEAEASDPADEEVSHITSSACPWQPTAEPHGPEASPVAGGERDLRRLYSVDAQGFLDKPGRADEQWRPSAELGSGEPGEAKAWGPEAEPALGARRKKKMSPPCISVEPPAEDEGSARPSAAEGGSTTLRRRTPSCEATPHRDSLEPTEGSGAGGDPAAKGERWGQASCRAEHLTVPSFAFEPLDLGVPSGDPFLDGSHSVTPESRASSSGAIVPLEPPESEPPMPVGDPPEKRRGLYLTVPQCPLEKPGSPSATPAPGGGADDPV

Compound | IC50
C[C@@H](NC(=O)[C@@H]1C[C@H]1c1ccc2ccccc2n1)c1ccc(OCC(F)(F)F)cn1 (relative stereo) [Example 325, (1R*,2R*)-2-(quinolin-2-yl)-N-((R)-1-(5-(2,2,2-trifluoroethoxy)pyridin-2-yl)ethyl)cyclopropanecarboxamide] | ≤ 300 nM
C[C@@H](NC(=O)[C@H]1C[C@@H]1c1cc(F)ccc1F)c1ccc(OCC(F)(F)F)cn1 (relative stereo) [Example 327, (1S*,2S*)-2-(2,5-difluorophenyl)-N-((R)-1-(5-(2,2,2-trifluoroethoxy)pyridin-2-yl)ethyl)cyclopropanecarboxamide] | ≤ 300 nM
C[C@@H](NC(=O)C1CC1c1cn(C)c2ccccc12)c1ccc(OCC(F)(F)F)cn1 (stereo in doubt) [Example 106, trans-2-(1-methyl-1H-indol-3-yl)-N-((R)-1-(5-(2,2,2-trifluoroethoxy)pyridin-2-yl)ethyl)cyclopropanecarboxamide] | ≤ 300 nM
C[C@@H](NC(=O)C1CC1c1c[nH]c2c(F)cccc12)c1ccc(OCC(F)(F)F)cn1 (stereo in doubt) [Example 108, trans-2-(7-fluoro-1H-indol-3-yl)-N-((R)-1-(5-(2,2,2-trifluoroethoxy)pyridin-2-yl)ethyl)cyclopropanecarboxamide] | ≤ 300 nM
C[C@@H](NC(=O)C1CC1c1c[nH]c2ccc(F)cc12)c1ccc(OCC(F)(F)F)cn1 (stereo in doubt) [Example 110, trans-2-(5-fluoro-1H-indol-3-yl)-N-((R)-1-(5-(2,2,2-trifluoroethoxy)pyridin-2-yl)ethyl)cyclopropanecarboxamide] | ≤ 300 nM
C[C@@H](NC(=O)C1CC1c1c[nH]c2ccc(C#N)cc12)c1ccc(OCC(F)(F)F)cn1 (stereo in doubt) [Example 111, trans-2-(5-cyano-1H-indol-3-yl)-N-((R)-1-(5-(2,2,2-trifluoroethoxy)pyridin-2-yl)ethyl)cyclopropanecarboxamide] | ≤ 300 nM
C[C@@H](NC(=O)C1CC1c1cc2ccccc2[nH]1)c1ccc(OCC(F)(F)F)cn1 (stereo in doubt) [Example 124, trans-2-(1H-indol-2-yl)-N-((R)-1-(5-(2,2,2-trifluoroethoxy)pyridin-2-yl)ethyl)cyclopropanecarboxamide] | ≤ 300 nM
C[C@@H](NC(=O)C1CC1c1cc2cc(F)ccc2[nH]1)c1ccc(OCC(F)(F)F)cn1 (stereo in doubt) [Example 125, trans-2-(5-fluoro-1H-indol-2-yl)-N-((R)-1-(5-(2,2,2-trifluoroethoxy)pyridin-2-yl)ethyl)cyclopropanecarboxamide] | ≤ 300 nM
C[C@@H](NC(=O)C1CC1c1ccc2cc[nH]c2c1)c1ccc(OCC(F)(F)F)nc1 (stereo in doubt) [Example 147, trans-2-(1H-indol-6-yl)-N-((R)-1-(6-(2,2,2-trifluoroethoxy)pyridin-3-yl)ethyl)cyclopropanecarboxamide] | ≤ 300 nM
C[C@@H](NC(=O)C1CC1c1ccc2ccn(C)c2c1)c1ccc(OCC(F)(F)F)cn1 (stereo in doubt) [Example 167, trans-2-(1-methyl-1H-indol-6-yl)-N-((R)-1-(5-(2,2,2-trifluoroethoxy)pyridin-2-yl)ethyl)cyclopropanecarboxamide] | ≤ 300 nM
C[C@@H](NC(=O)C1CC1c1c[nH]c2cc(F)ccc12)c1ccc(OCC(F)(F)F)cn1 (stereo in doubt) [Example 168, trans-2-(6-fluoro-1H-indol-3-yl)-N-((R)-1-(5-(2,2,2-trifluoroethoxy)pyridin-2-yl)ethyl)cyclopropanecarboxamide] | ≤ 300 nM
C[C@@H](NC(=O)C1CC1COc1ccc(Cl)cc1)c1ccc(OCC(F)(F)F)cn1 (stereo in doubt) [Example 169, trans-2-((4-chlorophenoxy)methyl)-N-((R)-1-(5-(2,2,2-trifluoroethoxy)pyridin-2-yl)ethyl)cyclopropanecarboxamide] | ≤ 300 nM
C[C@@H](NC(=O)C1CC1c1cc2cc(F)ccc2[nH]1)c1cnc(OCC(F)(F)F)cn1 (stereo in doubt) [Example 171, trans-2-(5-fluoro-1H-indol-2-yl)-N-((R)-1-(5-(2,2,2-trifluoroethoxy)pyrazin-2-yl)ethyl)cyclopropanecarboxamide] | ≤ 300 nM
C[C@@H](NC(=O)C1CC1c1cc2ccccc2cn1)c1ccc(OCC(F)(F)F)cn1 (stereo in doubt) [Example 172, trans-2-(isoquinolin-3-yl)-N-((R)-1-(5-(2,2,2-trifluoroethoxy)pyridin-2-yl)ethyl)cyclopropanecarboxamide] | ≤ 300 nM
C[C@@H](NC(=O)C1CC1c1cc2cc(F)ccc2[nH]1)c1ccc(OCC2CC2)cn1 (stereo in doubt) [Example 181, trans-N-((R)-1-(5-(cyclopropylmethoxy)pyridin-2-yl)ethyl)-2-(5-fluoro-1H-indol-2-yl)cyclopropanecarboxamide] | ≤ 300 nM
C[C@@H](NC(=O)C1CC1Cn1ccc2ccccc21)c1ccc(OCC(F)(F)F)cn1 (stereo in doubt) [Example 182, trans-2-((1H-indol-1-yl)methyl)-N-((R)-1-(5-(2,2,2-trifluoroethoxy)pyridin-2-yl)ethyl)cyclopropanecarboxamide] | ≤ 300 nM
C[C@@H](NC(=O)C1CC1c1ccc2ccn(CC3(C)COC3)c2c1)c1cnc(OCC(F)(F)F)cn1 (stereo in doubt) [Example 190, trans-2-(1-((3-methyloxetan-3-yl)methyl)-1H-indol-6-yl)-N-((R)-1-(5-(2,2,2-trifluoro-ethoxy)pyrazin-2-yl)ethyl)cyclopropanecarboxamide] | ≤ 300 nM
C[C@@H](NC(=O)C1CC1c1cc(F)cc(F)c1)c1cnc(OCC(F)(F)F)cn1 (stereo in doubt) [Example 194, trans-2-(3,5-difluorophenyl)-N-((R)-1-(5-(2,2,2-trifluoroethoxy)pyrazin-2-yl)ethyl)cyclopropanecarboxamide] | ≤ 300 nM
COc1ccc(C2CC2C(=O)N[C@H](C)c2ccc(OCC(F)(F)F)cn2)cc1C (stereo in doubt) [Example 202, trans-2-(4-methoxy-3-methylphenyl)-N-((R)-1-(5-(2,2,2-trifluoroethoxy)pyridin-2-yl)ethyl)cyclopropanecarboxamide] | ≤ 300 nM
C[C@@H](NC(=O)C1CC1c1ccc2ccccc2n1)c1ccc(OCC(F)(F)F)nc1 (stereo in doubt) [Example 205, trans-2-(quinolin-2-yl)-N-((R)-1-(6-(2,2,2-trifluoroethoxy)pyridin-3-yl)ethyl)cyclopropanecarboxamide] | ≤ 300 nM
C[C@@H](NC(=O)C1CC1c1ccc2cccnc2c1)c1ccc(OCC(F)(F)F)nc1 (stereo in doubt) [Example 206, trans-2-(quinolin-7-yl)-N-((R)-1-(6-(2,2,2-trifluoroethoxy)pyridin-3-yl)ethyl)cyclopropanecarboxamide] | ≤ 300 nM
C[C@@H](NC(=O)C1CC1c1ccc2ncccc2c1)c1ccc(OCC(F)(F)F)nc1 (stereo in doubt) [Example 207, trans-2-(quinolin-6-yl)-N-((R)-1-(6-(2,2,2-trifluoroethoxy)pyridin-3-yl)ethyl)cyclopropanecarboxamide] | ≤ 300 nM
C[C@@H](NC(=O)C1CC1c1ccc2ccn(C)c2c1)c1ccc(OCC(F)(F)F)nc1 (stereo in doubt) [Example 208, trans-2-(1-methyl-1H-indol-6-yl)-N-((R)-1-(6-(2,2,2-trifluoroethoxy)pyridin-3-yl)ethyl)cyclopropanecarboxamide] | ≤ 300 nM
C[C@@H](NC(=O)C1CC1c1cnc2ccccc2c1)c1ccc(OCC(F)(F)F)nc1 (stereo in doubt) [Example 211, trans-2-(quinolin-3-yl)-N-((R)-1-(6-(2,2,2-trifluoroethoxy)pyridin-3-yl)ethyl)cyclopropanecarboxamide] | ≤ 300 nM
C[C@@H](NC(=O)C1CC1c1cccc2cc[nH]c12)c1ccc(OCC(F)(F)F)nc1 (stereo in doubt) [Example 212, trans-2-(1H-indol-7-yl)-N-((R)-1-(6-(2,2,2-trifluoroethoxy)pyridin-3-yl)ethyl)cyclopropanecarboxamide] | ≤ 300 nM
C[C@@H](NC(=O)C1CC1c1ccc2ccn(CC3(C)COC3)c2c1)c1ccc(OCC(F)(F)F)nc1 (stereo in doubt) [Example 213, trans-2-(1-((3-methyloxetan-3-yl)methyl)-1H-indol-6-yl)-N-((R)-1-(6-(2,2,2-trifluoro-ethoxy)pyridin-3-yl)ethyl)cyclopropanecarboxamide] | ≤ 300 nM
C[C@@H](NC(=O)[C@H]1C[C@@H]1c1cccc(OCc2ccccc2)c1)c1ccc(OCC(F)(F)F)cn1 (stereo in doubt) [Example 240, (1S*,2S*)-2-(3-(benzyloxy)phenyl)-N-((R)-1-(5-(2,2,2-trifluoroethoxy)pyridin-2-yl)ethyl)cyclopropanecarboxamide] | ≤ 300 nM
C[C@@H](NC(=O)C1CC1c1nc2ccccc2n1C)c1ccc(OCC(F)(F)F)cn1 (stereo in doubt) [Example 243, trans-2-(1-methyl-1H-benzo[d]imidazol-2-yl)-N-((R)-1-(5-(2,2,2-trifluoroethoxy)pyridin-2-yl)ethyl)cyclopropanecarboxamide] | ≤ 300 nM
C[C@@H](NC(=O)C1CC1c1nc2ccccc2n1C)c1cnc(OCC(F)(F)F)cn1 (stereo in doubt) [Example 244, trans-2-(1-methyl-1H-benzo[d]imidazol-2-yl)-N-((R)-1-(5-(2,2,2-trifluoroethoxy)pyrazin-2-yl)ethyl)cyclopropanecarboxamide] | ≤ 300 nM
C[C@@H](NC(=O)C1CC1c1nc2ccccc2n1C)c1ccc(OCC(F)(F)F)nc1 (stereo in doubt) [Example 245, trans-2-(1-methyl-1H-benzo[d]imidazol-2-yl)-N-((R)-1-(6-(2,2,2-trifluoroethoxy)pyridin-3-yl)ethyl)cyclopropanecarboxamide] | ≤ 300 nM
